# Measurements published in patent US10294202B2, “Pyrrolidinones as herbicides” (FMC Corporation, priority 2013, dated 2019).
# Like-named read-outs stand apart in the source and are kept apart here.
# Assays:
# wheat = assay: Test A pre-/postemergence herbicide test; type: in vivo, Triticum aestivum; conditions: for plant injury at 125 g/ha / plant injury at 500 g/ha / plant injury at 1000 g/ha: Triticum aestivum, 240 h, read-out: Plant response rating, Wheat; for plant injury at 1000 g/ha: 1000 g ai/ha
# How it was run: (§1)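 Approximately 10 days after treatment in the greenhouse, plants were compared with untreated controls and given a 0–100 visual injury rating. Applications: preemergence directed soil spray; postemergence on 2–10 cm plants at the one- to two-leaf stage.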
# oilseed rape = assay: Test C pre-/postemergence herbicide test; type: in vivo, Brassica napus
# Text: (§2) Seeds of plant species selected from blackgrass (Alopecurus myosuroides), ryegrass, Italian (Italian ryegrass, Lolium multiflorum), wheat (winter wheat, Triticum aestivum), galium (catchweed bedstraw, Galium aparine), corn (Zea mays), crabgrass, large (large crabgrass, Digitaria sanguinalis), foxtail, giant (giant foxtail, Setaria faberii), johnsongrass (Sorghum halepense), lambsquarters (Chenopodium album), morningglory (Ipomoea coccinea), nutsedge, yellow (yellow nutsedge, Cyperus esculentus), pigweed (Amaranthus retroflexus), ragweed (common ragweed, Ambrosia elatior), soybean (Glycine max), barnyardgrass (Echinochloa crus-galli), oilseed rape (Brassica napus), waterhemp (common waterhemp, Amaranthus rudis), kochia (Kochia scoparia), oat, wild (wild oat, Avena fatua), surinam grass (Brachiaria decumbens), foxtail, green (green foxtail, Setaria viridis), goosegrass (Eleusine indica), bromegrass, downy (downy bromegrass, Bromus tectorum), nightshade (eastern black nightshade, Solanum ptycanthum), cocklebur (common cocklebur, Xanthium strumarium), cupgrass, woolly (woolly cupgrass, Eriochloa villosa), bermudagrass (Cynodon dactylon), sunflower, (common oilseed sunflower, Helianthus annuus), Russian thistle (Salsola kali) and velvetleaf (Abutilon theophrasti) were planted into a blend of loam soil and sand and treated preemergence with test chemicals formulated in a non-phytotoxic solvent mixture which included a surfactant. At the same time, plants selected from these crop and weed species and also barley (winter barley, Hordeum vulgare), […]), chickweed (common chickweed, Stellaria media), deadnettle (henbit deadnettle, Lamium amplexicaule), and canarygrass (littleseed canarygrass, Phalaris minor) were planted in pots containing Redi-Earth® planting medium (Scotts Company, 14111 Scottslawn Road, Marysville, Ohio 43041) comprising spaghnum peat moss, vermiculite, wetting agent and starter nutrients and treated with postemergence applications of test chemicals formulated in the same manner. Plants ranged in height from 2 to 18 cm (1- to 4-leaf stage) for postemergence treatments. Treated plants and controls were maintained in a greenhouse for 13 to 15 days, after which time all species were compared to controls and visually evaluated. Plant response ratings, summarized in Table C, are based on a scale of 0 to 100 where 0 is no effect and 100 is complete control. A dash (-) response means no test result.
# morningglory = assay: Test C pre-/postemergence herbicide test; type: in vivo, Ipomoea coccinea
# Text: as §2
# barnyardgrass = assay: Test C pre-/postemergence herbicide test; type: in vivo, Echinochloa crus-galli
# Text: as §2
# foxtail, giant = assay: Test C pre-/postemergence herbicide test; type: in vivo, Setaria faberii
# Text: as §2
# galium = assay: Test A postemergence herbicide test; type: in vivo, Galium aparine
# How it was run: (§3)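 Visual injury rating, 0 (no effect) to 100 (complete control), versus untreated controls ~10 days after treatment. Postemergence spray applied at one- to two-leaf stage, plants 2–10 cm tall, potted in loam soil/sand. Greenhouse-held.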
# ragweed = assay: Test A pre-/postemergence herbicide test; type: in vivo, Ambrosia elatior; conditions: for Plant response rating, Ragweed: 0 to 100 scale
# How it was run: as §1
# blackgrass = assay: Test A postemergence herbicide test; type: in vivo, Alopecurus myosuroides
# How it was run: as §3
# [1] = Preemergence, 125 g ai/ha, visual rating on 0 to 100 scale (0 no effect, 100 complete control)
# [2] = post-emergence, Postemergence, 125 g ai/ha, 0 to 100 scale, 0 no effect, 100 complete control
# [3] = post-emergence, Postemergence, 500 g ai/ha, 0 to 100 scale (0 no effect, 100 complete control)
# [4] = pre-emergence, preemergence, 500 g ai/ha, 0 to 100 scale
# [5] = Postemergence, 31 g ai/ha, scale 0 (no effect) to 100 (complete control)
# [6] = Postemergence, 62 g ai/ha, scale 0 to 100 (0 no effect, 100 complete control)
# [7] = Postemergence, 125 g ai/ha, scale 0 to 100 (0 no effect, 100 complete control)
# [8] = Postemergence, 250 g ai/ha, scale 0 to 100 (0 no effect, 100 complete control)
# [9] = Preemergence, 31 g ai/ha, scale 0 to 100, 0 is no effect and 100 is complete control
# [10] = Preemergence, 62 g ai/ha, scale 0 to 100
# [11] = Preemergence, 125 g ai/ha, scale 0 to 100 (0 no effect, 100 complete control)
# [12] = Postemergence, 125 g ai/ha, 0 to 100 scale, 0 no effect, 100 complete control
# [13] = Postemergence, 500 g ai/ha, 0 to 100 scale (0 no effect, 100 complete control)
# [14] = preemergence, 500 g ai/ha, 0 to 100 scale
# [15] = Preemergence, 31 g ai/ha, scale 0 to 100 (0 no effect, 100 complete control)
# [16] = Preemergence, 250 g ai/ha, scale 0 to 100 (0 no effect, 100 complete control)
# [17] = 125 g ai/ha, 0 to 100 scale, 0 is no effect, 100 is complete control
smiles,measurement,setting,value
"O=C1NCC(c2ccccc2)C1(Br)C(=O)Nc1ccccc1F (stereo not shown) [Compound 93, 3-bromo-N-(2-fluorophenyl)-2-oxo-4-phenyl-3-pyrrolidinecarboxamide]",Wheat plant response rating,wheat; [1],0
same,plant injury at 125 g/ha,wheat; [2],0%
same,plant injury at 500 g/ha,wheat; [3],0%
same,plant injury at 500 g/ha,wheat; [4],0%
O=C1NCC(c2ccc(F)c(F)c2)C1C(=O)Nc1cccc(F)c1F (racemic) [Compound 101],"Plant response rating, Oilseed Rape",oilseed rape; [5],5
same,"Plant response rating, Oilseed Rape",oilseed rape; [6],10
same,"Plant response rating, Oilseed Rape",oilseed rape; [7],50
same,"Plant response rating, Oilseed Rape",oilseed rape; [8],35
same,Oilseed Rape plant response rating,oilseed rape; [9],0
same,"Plant response rating, Oilseed Rape",oilseed rape; [10],35
same,"Plant response rating, Oilseed Rape",oilseed rape; [11],80
same,"Plant response rating (scale of 0 to 100), Oilseed Rape","oilseed rape; Preemergence, 250 g ai/ha",80
same,"Plant response rating, Morningglory",morningglory; [5],15
same,"Plant response rating, Morningglory",morningglory; [6],15
same,"Plant response rating, Morningglory",morningglory; [7],25
same,"Plant response rating, Morningglory",morningglory; [8],55
same,Morningglory plant response rating,morningglory; [9],0
same,"Plant response rating, Morningglory",morningglory; [10],0
same,"Plant response rating, Morningglory",morningglory; [11],30
same,"Plant response rating (scale of 0 to 100), Morningglory","morningglory; Preemergence, 250 g ai/ha",25
same,"Plant response rating, Wheat",wheat; [12],50
same,"Plant response rating, Wheat",wheat; [13],60
same,Wheat plant response rating,wheat; [1],60
same,"Plant response rating, Wheat",wheat; [14],70
same,"Plant response rating, Barnyardgrass",barnyardgrass; [5],0
same,"Plant response rating, Barnyardgrass",barnyardgrass; [6],35
same,"Plant response rating, Barnyardgrass",barnyardgrass; [7],65
same,"Plant response rating, Barnyardgrass",barnyardgrass; [8],90
same,Barnyardgrass plant response rating,barnyardgrass; [9],90
same,"Plant response rating, Barnyardgrass",barnyardgrass; [10],95
same,"Plant response rating, Barnyardgrass",barnyardgrass; [11],95
same,"Plant response rating (scale of 0 to 100; 0 is no effect, 100 is complete control), Barnyardgrass","barnyardgrass; Preemergence, 250 g ai/ha",95
same,"Plant response rating, Foxtail, Giant","foxtail, giant; [5]",0
same,"Plant response rating, Foxtail, Giant","foxtail, giant; [6]",20
same,"Plant response rating, Foxtail, Giant","foxtail, giant; [7]",75
same,"Plant response rating, Foxtail, Giant","foxtail, giant; [8]",90
same,"Foxtail, Giant plant response rating","foxtail, giant; [9]",95
same,"Plant response rating, Foxtail, Giant","foxtail, giant; [10]",95
same,"Plant response rating, Foxtail, Giant","foxtail, giant; [11]",98
same,"Plant response rating (scale of 0 to 100), Foxtail, Giant","foxtail, giant; Preemergence, 250 g ai/ha",98
"O=C1NCC(Br)(c2ccccc2)C1C(=O)Nc1ccccc1F (stereo not shown) [Compound 92, 4-bromo-N-(2-fluorophenyl)-2-oxo-4-phenyl-3-pyrrolidinecarboxamide]",Wheat plant response rating,wheat; [1],0
same,plant injury at 125 g/ha,wheat; [2],0%
same,plant injury at 500 g/ha,wheat; [3],0%
same,plant injury at 500 g/ha,wheat; [4],0%
"O=C1NCCC1C(=O)N(c1ccc(F)c(F)c1)c1ccccc1F (stereo not shown) [Compound 5, N-(3,4-difluorophenyl)-N-(2-fluorophenyl)-2-oxo-3-pyrrolidinecarboxamide]","Plant response rating, Morningglory",morningglory; [10],0
same,"Plant response rating, Morningglory",morningglory; [11],0
same,Wheat plant response rating,wheat; [1],0
same,plant injury at 500 g/ha,wheat; [3],0%
same,plant injury at 500 g/ha,wheat; [4],0%
same,"Plant response rating, Foxtail, Giant","foxtail, giant; [10]",100
same,"Plant response rating, Foxtail, Giant","foxtail, giant; [11]",100
same,"Foxtail, Giant plant response rating","foxtail, giant; [15]",95
same,"Plant response rating, Foxtail, Giant","foxtail, giant; [16]",100
"O=C1NCC(c2ccc(F)c(F)c2)C1C(=O)Nc1cccc(F)c1F (stereo not shown) [Compound 17, N-(2,3-difluorophenyl)-4-(3,4-difluorophenyl)-2-oxo-3-pyrrolidinecarboxamide]","Plant response rating, Morningglory",morningglory; [5],0
same,"Plant response rating, Morningglory",morningglory; [6],0
same,"Plant response rating, Morningglory",morningglory; [7],0
same,"Plant response rating, Morningglory",morningglory; [8],0
same,"Plant response rating, Morningglory",morningglory; [10],0
same,plant injury at 1000 g/ha,"wheat; post-emergence, Postemergence, 0 to 100 scale (0 no effect, 100 complete control)",60%
same,plant injury at 1000 g/ha,"wheat; pre-emergence, Preemergence, visual rating on 0 to 100 scale (0 no effect, 100 complete control), approx. 10 days",70%
same,"Plant response rating, Foxtail, Giant","foxtail, giant; [5]",0
same,"Plant response rating, Foxtail, Giant","foxtail, giant; [6]",0
same,"Plant response rating, Foxtail, Giant","foxtail, giant; [7]",0
same,"Plant response rating, Foxtail, Giant","foxtail, giant; [8]",10
same,"Plant response rating, Foxtail, Giant","foxtail, giant; [10]",95
same,"Plant response rating, Foxtail, Giant","foxtail, giant; [11]",100
same,"Foxtail, Giant plant response rating","foxtail, giant; [15]",90
same,"Plant response rating, Foxtail, Giant","foxtail, giant; [16]",100
O=C1NCC(c2ccc(F)c(F)c2)C1C(=O)Nc1ccccc1C(F)(F)F (racemic) [Compound 6],"Plant response rating, Wheat",wheat; [13],0
same,Wheat plant response rating,wheat; [1],0
same,"Plant response rating, Wheat",wheat; [14],0
O=C1NCC(c2ccc(Cl)c(Cl)c2)C1C(=O)Nc1ccccc1F (racemic) [Compound 14],"Plant response rating, Morningglory",morningglory; [10],0
same,"Plant response rating, Morningglory",morningglory; [11],0
same,"Plant response rating, Wheat",wheat; [12],0
same,"Plant response rating, Wheat",wheat; [13],0
same,Wheat plant response rating,wheat; [1],0
same,"Plant response rating, Wheat",wheat; [14],0
same,"Plant response rating, Foxtail, Giant","foxtail, giant; [10]",85
same,"Plant response rating, Foxtail, Giant","foxtail, giant; [11]",90
same,"Foxtail, Giant plant response rating","foxtail, giant; [15]",85
same,"Plant response rating, Foxtail, Giant","foxtail, giant; [16]",95
O=C1NCC(c2cccc(C(F)F)c2)C1C(=O)Nc1ccccc1F (racemic) [Compound 210],"Plant response rating, Galium",galium; [17],30
same,"Galium plant response rating (0 to 100 scale, 0 is no effect, 100 is complete control)",galium; 500 g ai/ha,60
same,"Plant response rating, Ragweed","ragweed; 125 g ai/ha, visual rating, 0 no effect, 100 complete control, approximately 10 days, preemergence",0
same,"Plant response rating, Ragweed","ragweed; Postemergence, 125 g ai/ha, 0 is no effect, 100 is complete control",0
same,"Ragweed plant response rating (0 to 100 scale, 0 is no effect, 100 is complete control)","ragweed; Postemergence, 500 g ai/ha",0
same,"Plant response rating, Ragweed","ragweed; preemergence, 500 g ai/ha, 0 is no effect and 100 is complete control",30
same,"Plant response rating, Blackgrass",blackgrass; [17],30
same,"Blackgrass plant response rating (0 to 100 scale, 0 is no effect, 100 is complete control)",blackgrass; 500 g ai/ha,60
same,"Plant response rating, Wheat","wheat; Postemergence, 125 g ai/ha, 0 to 100 scale, 0 is no effect, 100 is complete control",0
same,"Wheat plant response rating (0 to 100 scale, 0 is no effect, 100 is complete control)","wheat; Postemergence, 500 g ai/ha",50
